Measured values published in US12055547B2, “TMEM active test and uses thereof in diagnosis, prognosis and treatment of tumors” (Albert Einstein College of Medicine, priority 2015, dated 2024).

Key:
macrophages = assay: Macrophage depletion in PyMT tumors in the MAFIA mouse model; assay type: in vivo; conditions: vs vehicle
Text: Summary Tumor cell intravasation at sites of transient vascular permeability associated with TMEM was studied using mouse mammary tumor virus—polyoma middle T antigen (MMTV-PyMT) autochthonous and implanted models of human patient-derived mammary carcinoma. Single cell resolution of cell activity at TMEM in live animals was achieved using extended time-lapse imaging on a custom-built two-laser multiphoton microscope. To investigate the role of macrophages in tumor cell intravasation and blood vessel permeability, the MAFIA mouse model was used to deplete macrophages. Observation of extravascular dextran, vascular junction proteins and protein expression in tissue was performed using immunofluorescence microscopy. Further investigation of the mechanism of macrophage-mediated tumor cell intravasation and blood vessel permeability at TMEM utilized anti-mouse-VEGFA inhibitory antibody and the ablation of Vegfa expression in monocytes using a myeloid-specific (Csf1r promoter), tamoxifen-inducible Cre expressing mouse strain was crossed with Vegfa^flox/flox mice with gene ablation induced with tamoxifen.
Immunofluorescence image analysis. […] The remaining extravascular dextran area, and blood vessel area were then measured. […]

[1] = system: Tie2 macrophage function in TMEM; assay: TMEM density and TMEM activity (IV-dextran/ZO-1 staining) in tumor after rebastinib; assay type: in vivo
Text: FIG. 11A-11B. […] (B) Quantification of vascular permeability activity of tumor TMEM using vascular permeability marker IV-dextran/ZO-1 staining intensity (n=7 and 9; * , P=0.0177).
The relative activity of TMEM can be quantified in (e.g., FFPE) tissue sections in several ways, e.g.: • 1. as the ratio of IV-dextran (or other IV contrast agent) that has leaked from the blood vessel into the tissue at the time of Formaldehyde Fixation after IV injection of contrast agent in preparation for FFPE (measure of local vascular permeability) divided by ZO-1 or VE-Cad staining intensity at TMEM (FIG. 11). Higher dextran/ZO-1=more TMEM activity; • 2. as the ratio of ZO-1 or VE-Cad staining intensity at TMEM per area of blood vessel (CD31 staining area) (FIG. 12). Higher VE-Cad or ZO-1/CD31=less TMEM activity; • 3. as the absolute intensity of ZO-1 or VE-Cad staining intensity at TMEM sites (FIG. 10). Higher VE-Cad staining=less TMEM activity.
The activity status of TMEM (TMEM^Active) in patient tissue samples can be used to assess the efficacy of dissemination inhibitor drugs that inhibit TMEM activity. For example, observe the effects of the following dissemination inhibitors on TMEM^Active using the quantitation methods for TMEM activity described in #1-3 above as follows: • a. Rebastinib, the Tie2 inhibitor which blocks VEGF^Hi TMEM macrophage function, (FIG. 11); • b. […]

SMILES | blood vessel permeability (extravascular 155 kDa dextran-TMR) (macrophages; FIG. 5E) | tumor cell intravasation (circulating tumor cells) (macrophages; FIG. 5F) | TMEM density in 10 40× fields ([1]; FIG. 11A) | vascular permeability activity of tumor TMEM (IV-dextran/ZO-1 staining intensity) ([1]; FIG. 11B, n=7 and 9, P=0.0177)
CC[C@H](C(=O)N1CCCC[C@H]1C(=O)O[C@H](CCc1ccc(OC)c(OC)c1)c1cccc(OCC(=O)NCC(CNC(=O)COc2cccc([C@@H](CCc3ccc(OC)c(OC)c3)OC(=O)[C@@H]3CCCCN3C(=O)[C@@H](CC)c3cc(OC)c(OC)c(OC)c3)c2)CN(C)C)c1)c1cc(OC)c(OC)c(OC)c1 [B/B homodimerizer] | reduces | reduces | – | –
CNC(=O)c1cc(Oc2ccc(NC(=O)Nc3cc(C(C)(C)C)nn3-c3ccc4ncccc4c3)c(F)c2)ccn1 [Rebastinib] | – | – | not significant | inhibits TMEM activity
